How the values were obtained:
[1] = molecules of known Log(k′w) used for calibration; cited from earlier work
[2] = Log P determination by reverse-phase HPLC (OECD method); settings: 25% water in acetonitrile (condition B)
[3] = tested on: HeLa cells; assay: Resazurin cell proliferation assay on HeLa cells; type: cell-based, human; settings: 72 h incubation
Description: All new 16 BGC compounds were screened against HeLa cells (cervical adenocarcinoma) to assess their antiproliferative activity through a resazurin cell viability assay.^[ [49] ^] The dose‐response curves were then fitted by a 4‐parameter sigmoid function to extract the median effective concentrations (EC50) shown in Figure 7 .
(§1) HeLa and MDA‐MB‐231 cells were cultivated in DMEM GlutaMax High Glucose supplemented with 10 vol% fetal bovine serum (FBS) and 1 vol% penicillin/streptomycin (50 U/mL and 50 μg/mL respectively). Huh‐7 cells were cultivated in MEM supplemented with 10 vol% FBS, GlutaMax (2 mM), sodium pyruvate (1 mM), nonessential amino acids mix (0.1 mM), and 1 vol% penicillin/streptomycin. MCF10A cells were cultivated in DMEM:F12 GlutaMax supplemented with 1 vol% penicillin/streptomycin, hEGF (20 ng/mL), hydrocortisone ([…]), cholera toxin (100 ng/mL), insulin (10 μg/mL), and 5 vol% horse serum. These media will be further referred as “Complete media.”
(§2) Stock solutions of the gold complexes (20 mM) were prepared in DMSO and kept at −20 °C. Serial dilutions were performed to obtain a set of 8 concentrations with a 2‐fold geometric progression, and were stored at −20 °C as well.
Cell proliferation assays were performed using resazurin as a viability indicator. Cells were seeded in 96‐well plates (2000 cells/100 μL per well) in the appropriate complete medium and allowed to grow for 24 h. Cells were then treated in triplicate with 8 different concentrations of the complexes, which were added as 100 μL of 2x dilution in culture medium containing no FBS (or containing 5% horse serum for MCF‐10 A cells), thus leading to a 5% concentration of serum in each well. After 72 h incubation, 110 μL of supernatant was removed from each well, and 10 μL of 500 μM resazurin solution (10x) in PBS were added prior to incubating the cells for 2 h. The fluorescence intensity of the reduction product resorufin was measured in each well (540 nm excitation, 590 nm reading), and cellular viability was computed as the fluorescence ratio between sample and DMSO control wells after blank subtraction. The EC50 value was computed by fitting the data with a 4‐parameter sigmoid σ through nonlinear least square regression, where the EC50 value is directly the c parameter. The regression was performed using curve_fit() function scipy.optimize module in python (scripts available^[ [60] ^]). σ(x,a,b,c,d)=d+a−d/1+(x/c)^b

[4] = tested on: Huh‐7; assay: Resazurin cell proliferation assay on Huh-7 cells; type: cell-based, human; settings: Huh‐7, 72 h incubation
Description: (§3) Considering the equivalent activities for neutral and cationic analogs, only cationic representatives of the BGC12, BGC18, and BGC19 couples were further screened on two other human cancer cell lines including hepatic carcinoma Huh‐7 and “triple negative” breast adenocarcinoma MDA‐MB‐231 and noncancerous epithelial breast cells MCF‐10 A (Table 1 ).
as §1, §2
(§4) Cell proliferation assays were performed using resazurin as a viability indicator. Cells were seeded in 96‐well plates (2000 cells/100 μL per well) in the appropriate complete medium and allowed to grow for 24 h. Cells were then treated in triplicate with 8 different concentrations of the complexes, which were added as 100 μL of 2x dilution in culture medium containing no FBS (or containing 5% horse serum for MCF‐10 A cells), thus leading to a 5% concentration of serum in each well. […] The fluorescence intensity of the reduction product resorufin was measured in each well (540 nm excitation, 590 nm reading), and cellular viability was computed as the fluorescence ratio between sample and DMSO control wells after blank subtraction. […]

[5] = tested on: MDA‐MB‐231; assay: Resazurin cell proliferation assay on MDA-MB-231 cells; type: cell-based, human; settings: MDA‐MB‐231, 72 h incubation
Description: as §3, §1, §2, §4

[6] = tested on: MCF‐10 A; assay: Resazurin cell proliferation assay on noncancerous MCF-10A cells; type: cell-based, human; settings: MCF‐10 A noncancerous cells, 72 h incubation
Description: as §3, §1, §2, §4

[7] = Reaction with chloride ions by 1H NMR; type: physicochemical; settings: 1 eq. chloride source, DMSO‐d6/D2O 4/1
Procedure: Reaction with Chloride Ions: 400 μL of freshly prepared gold complex solution in DMSO‐d6 (5 mM) was added to an NMR tube, followed by 4 μL of 0.5 M NaCl in D2O and 96 μL of D2O. Spectra were acquired straight away (t0 reference) prior to transferring the tubes to an oven set at 37 °C for 72 h. Spectra were then acquired periodically during incubation.

[8] = Speciation in DMSO-d6/serum-free DMEM by 1H NMR; type: physicochemical; settings: 3/1 DMSO‐d6/serum‐free DMEM, immediately after mixing (t < 5 min)
Procedure: Speciation in DMEM: NMR spectra were recorded on a Bruker Avance II 300 spectrometer (7 T) operating at a ^1H Larmor frequency of 300.13 MHz with a 5 mm observe broadband probe (QNP) z‐axis (^31P/^19 F/^13C/^1H) at 27 °C.
Solutions of the gold complexes (10 mM) were freshly prepared in DMSO‐d6. Samples were prepared by mixing 200 μL of complex solution with 100 μL (resp. 67 μL) of pure DMSO‐d6 and 100 μL (resp. 133 μL) of DMEM GlutaMax High glucose without FBS. ^1H NMR spectra were acquired immediately after mixing (t < 5 min) using a standard zg30 sequence to determine the resonant frequency of water in the tube. Further spectra were acquired using a cpmg‐esgp1d sequence (pulse program available^[ [60] ^]) which carrier frequency (O1P) was tuned to the water peak maximum to ensure optimal water suppression. The Hahn echo time (D20) was left null to acquire a spectrum without the use of T2‐gating. A particular attention was paid to the shimming process as poor shims result in a broader water signal thus leading to an inefficient water suppression.

[9] = tested on: mitochondrial membrane potential of HeLa cells; assay: Mitochondrial membrane polarization JC-10 endpoint assay; type: cell-based, human; settings: 10 μM, 1 h or 4 h
Procedure: Several gold complexes were previously reported to accumulate in mitochondria^[ [50], [51] ^] or even to disrupt their membrane potential.^[ [27], [52], [53] ^] We therefore investigated the possible antimitochondrial activity of BGC19b, chosen as a representative of the most toxic compounds. Briefly, we incubated HeLa cells with BGC19b (1 h or 4 h) or CCCP (4 h) as positive control and monitored the mitochondrial membrane potential through a JC‐10 endpoint assay.
HeLa cells were seeded in a 96‐well plate (2000 cells in 100 μL complete medium per well) and left to adhere. Cells were then treated in triplicate with gold complexes (addition of 100 μL of 2x complex solution in FBS‐free medium) 4 h and 1 h before reading the plate. A control triplicate was treated with CCCP (10 μM) and incubated for 4 h before reading. One hour before reading, 100 μL of supernatant was withdrawn from each well and replaced with JC‐10 in assay buffer A solution (Abcam, 1x, 50 μL). Cells were incubated with the marker for 1 h, and assay buffer B (50 μL) was added. Mitochondrial membrane potential was assessed by computing the ratio of fluorescence intensities between aggregated (λ ex = 540 nm, λ fluo = 590 nm) and nonaggregated JC‐10 (λ ex = 490 nm, λ fluo = 525 nm). […]

[10] = tested on: HeLa cells; assay: Resazurin viability run in parallel to the JC-10 assay; type: cell-based, human; settings: 10 μM, 1 h and 4 h
[11] = tested on: effector caspases 3 and 7 in HeLa cells; assay: Caspase 3/7 activity and cellular morphology by time lapse videomicroscopy; type: cell-based, human; settings: for Rate of apoptosis induction (caspase activation kinetics): BGC19b 1.7 μM, CCCP 10 μM
Procedure: Apoptosis is a possible outcome of energy shortage in cells following mitochondrial depolarization. We thus monitored the activity of the effector caspases 3 and 7, as a readout of cell apoptosis. The overall cellular morphology was analyzed in parallel.
HeLa cells were seeded in an 8‐well Ibidi slide (4000 cells in 500 μL complete medium per well) and allowed to grow for 24 h. The culture medium was changed to a fresh one (DMEM 5% FBS, 200 μL) containing SiR‐DNA dye (Spirochrome, 1 μM) and CellEvent Caspase 3/7 Green marker (ThermoFisher, 1 μM). […] Cells were monitored for 24 h (20 min step between images) by phase contrast and fluorescence microscopy (Cy5 and EGFP filters for SiR‐DNA and CellEvent Caspase 3/7 markers, respectively). Images were processed using Fiji, and cellular viabilities were extracted as Viability=1−NEGFP/NCy5 where N i denotes the number of cells counted in channel i. Cells were counted in EGFP and Cy5 channels using TrackMate (DoG detector + Simple LAP tracker).^[ [62] ^] The cellular morphology was also manually monitored using the phase contrast channel by tagging cells losing adhesion and displaying blebs.^[ [60] ^]

[12] = Solvolysis / stability in DMSO-d6 and DMSO-d6/D2O by 1H NMR; type: physicochemical; settings: 24 h incubation at 37 °C in DMSO
Procedure: Solvolysis Kinetics: 400 μL of freshly prepared gold complex solution in DMSO‐d6 (5 mM) was transferred to an NMR tube. Spectra were acquired straight away (t0 reference) prior to transferring the tubes to an oven set at 37 °C for 72 h. Spectra were then acquired periodically during incubation. The same procedure was repeated with addition of 100 μL of D2O to each tube.
Solvolysis: A concentrated solution of gold complex (≈40 mM) was prepared in 1 mL DMSO‐d6 mixed with 250 μL of D2O and incubated at 37 °C for 24 h. The solution was then extracted 5 times with 3 mL DCM. The DCM phase was recovered and evaporated thoroughly, and the resulting residue was dissolved in MeCN‐d3 and analyzed by ^1H NMR.

[13] = design: method as in PMID 29277693; settings: read-out: EC50 of CCCP; cited from earlier work

Compound: CCCCCCCCc1ccccc1 [Octylbenzene]
- log(k’w) of log P standard mix [1]: 6.3

Compound: Cc1cc[n+]2c(c1)Cn1cc[n+](C)[c]1[Au-]21[c]2cc(C(C)(C)C)ccc2-c2ccc(C(C)(C)C)c[c]21.F[P-](F)(F)(F)(F)F [BGC14b]
- Log P (cationic b, form) [2]: 4.8

Compound: CC(C)(C)c1ccc2[c](c1)[Au-]1([c]3cc(C(C)(C)C)ccc3-2)[c]2n3ccccc3c[n+]2Cc2cccc[n+]21.F[P-](F)(F)(F)(F)F [BGC19b]
- EC50 [3]: 1800 ± 600 nM
- EC50 [4]: 1400 ± 100 nM
- EC50 [5]: 2000 ± 100 nM
- EC50 [6]: 1600 ± 400 nM
- Conversion of cationic to neutral form on addition of chloride [7]: converted back quantitatively and instantaneously
- Species identified in culture medium mixture [8]: only the neutral complexes were identified
- Mitochondrial membrane depolarization [9]: significant mitochondrial membrane depolarization
- Change in cell viability during JC-10 assay [10]: no significant change in cell viability
- Induction period before adhesion loss, blebs and caspase 3/7 activation ([11]; 1.7 μM): around 4 h
- Rate of apoptosis induction (caspase activation kinetics) [11]: induces apoptosis much faster than CCCP
- Log P (cationic b, form) [2]: 4.3

Compound: COc1cc[n+]2c(c1)Cn1cc[n+](C)[c]1[Au-]21[c]2cc(C(C)(C)C)ccc2-c2ccc(C(C)(C)C)c[c]21.F[P-](F)(F)(F)(F)F [BGC15b]
- Conversion of cationic to neutral form on addition of chloride [7]: converted back quantitatively and instantaneously
- Log P (cationic b, form) [2]: 4.2

Compound: C[n+]1[c]2n(c3ccccc31)Cc1cccc[n+]1[Au-]21[c]2cc(C(C)(C)C)ccc2-c2ccc(C(C)(C)C)c[c]21.F[P-](F)(F)(F)(F)F [BGC18b]
- EC50 [3]: 2800 ± 700 nM
- EC50 [4]: 2500 ± 400 nM
- EC50 [5]: 4400 ± 800 nM
- EC50 [6]: 2800 ± 500 nM
- Log P (cationic b, form) [2]: 4.5

Compound: Cc1cccc2[n+]1[Au-]1([c]3cc(C(C)(C)C)ccc3-c3ccc(C(C)(C)C)c[c]31)[c]1n(cc[n+]1C)C2.F[P-](F)(F)(F)(F)F [BGC13b]
- Log P (cationic b, form) [2]: 4.4

Compound: COc1ccccc1 [Anisole]
- log(k’w) of log P standard mix [1]: 2.1

Compound: C[n+]1ccn2[c]1[Au-]1([c]3cc(C(C)(C)C)ccc3-c3ccc(C(C)(C)C)c[c]31)[n+]1ccccc1C2.F[P-](F)(F)(F)(F)F [BGC12b]
- EC50 [3]: 1800 ± 100 nM
- EC50 [4]: 1800 ± 100 nM
- EC50 [5]: 2900 ± 100 nM
- EC50 [6]: 1200 ± 300 nM
- Spectra in MeCN‐d3 after incubation in DMSO and extraction in DCM [12]: unchanged
- Conversion of cationic to neutral form on addition of chloride [7]: converted back quantitatively and instantaneously
- Species identified in culture medium mixture [8]: only the neutral complexes were identified
- Log P (cationic b, form) [2]: 3.9

Compound: C[n+]1ccn2[c]1[Au-]1([c]3cc(C(C)(C)C)ccc3-c3ccc(C(C)(C)C)c[c]31)[n+]1c(ccc3ccccc31)C2.F[P-](F)(F)(F)(F)F [BGC16b]
- EC50 [3]: 3200 ± 300 nM
- Log P (cationic b, form) [2]: 4.5

Compound: N#CC(C#N)=NNc1cccc(Cl)c1 [CCCP, reference compound]
- Rate of apoptosis induction (caspase activation kinetics) [11]: occurred at a much slower rate compared to BGC19b
- EC50 [13]: 10000 nM

Compound: c1ccc2ccccc2c1 [Naphtalene]
- log(k’w) of log P standard mix [1]: 3.6

Compound: C[n+]1ccn2[c]1[Au-]1([c]3cc(C(C)(C)C)ccc3-c3ccc(C(C)(C)C)c[c]31)[n+]1ccncc1C2.F[P-](F)(F)(F)(F)F [BGC17b]
- Log P (cationic b, form) [2]: 3.5

From PMC12276038, “Impact of Chelation on Reactivity and Cytotoxicity of Hemilabile Biphenyl Gold(III) N‐Heterocyclic Carbene Complexes” (Chemmedchem, 2025)
